The values below come from patent US20250099407A1, “2-AMINO BENZOPHENONE DERIVATIVES FOR TARGETED FERROPTOSIS INDUCTION IN CANCER THERAPY” (INDIAN INSTITUTE OF TECHNOLOGY KANPUR, priority 2023, published 2025).

Assay [1] has as its system A375. Put plainly: Cell viability, CellTiter-Glo assay, A375. Type of assay: cell-based. As to conditions: Homo sapiens, A-375. The procedure:
The viability of screened cancer cells was recorded using a luminescence-based CellTiter-Glo® assay for the ATP quantification. The screening concentration of the molecule ranged from 100/10 μM to 45/4.5 nM with an 8-point-3-fold dilution series in DMEM media (>0.1% DMSO as control). Each experiment was conducted in more than two biological replicates with three technical replicates. The error bar is a representation of standard deviation among the technical replicates.
The viability of screened cancer cells was recorded using a luminescence-based CellTiter-Glo® assay for the ATP quantification. The screening concentration of IITK3002 ranged from 10 μM to 4.5 nM with an 8-point-3-fold dilution series in DMEM media (>0.1% DMSO as control). Each experiment was conducted in more than two biological replicates with three technical replicates. The error bar is a representation of standard deviation among the technical replicates.
a. […] In parallel, we have also synthesized the bromoacetamide (IITK3002) version of the lead molecules which is slightly more reactive with thiol nucleophiles when compared to chlorooacetamide warheads as depicted in FIG. 13. […] In addition, we also evaluated the molecules' antiproliferative potency against a panel of twelve different cancer phenotypes. […]
For orientation: ATP-based viability assays read luminescence as a measure of living cells.

The test system of assay [2] is 4T1 cells. Kind of assay: Combination cell viability experiments in 4T1 cells. In kind it is cell-based. As to conditions: 4T1, Ferrostain-1 10 μM. The procedure: FIG. 14 depicts a combination experiment indicates the involvement of thiol modulation by IITK3001/IITK3002 on the viability of Huh-7 and 4T1 cells, in accordance with an embodiment of the present invention. The viability of screened cancer cells was recorded using a luminescence-based CellTiter-Glo® assay for the ATP quantification. The screening concentration of (a) IITK3001 and (b) IITK3002 ranged from 10 uM to 4.5 nM with an 8-point-3-fold dilution series in DMEM medium (>0.1% DMSO as control). For combination experiments, 500 μM of NAC or glutathione and 25 μM of BSO were used. Each experiment was conducted in more than two biological replicates with three technical replicates. The error bar is a representation of standard deviation among the technical replicates.
FIG. 17 depicts IITK3001-mediated ferroptosis induction as a cell death mechanism in 4T1 cells is recorded, in accordance with an embodiment of the present invention. The screening concentration of (a) IITK3001 and (b) IITK3002 ranged from 10 μM to 4.5 nM with an 8-point-3-fold dilution series. […]
FIG. 19 depicts IITK3001-mediated ferroptosis induction as a cell death mechanism in 4T1 cells is recorded, in accordance with an embodiment of the present invention. […]

In assay [1], `CN(C(=O)CCl)c1ccccc1C(=O)c1ccccc1` [IITK3001, N-(2-benzoylphenyl)-2-chloro-N-methylacetamide] displayed an EC50 of 352 nM. Besides, the “effect of Fer-1 combination in 4T1 cells” value in assay [2] is “negligible”.

Usually EC50 stands for the concentration giving half of the maximal effect. Read a low EC50 as a more potent agent.
